A short description of data set [1]: Cytotoxicity against human HL-7702 cells measured after 72 hrs by MTT assay. It is filed as cell-based. The conditions noted are these: HL-7702 (L02) cells. For orientation: Tetrazolium assays rely on reduction of a dye to a coloured formazan, in cell work by metabolically active cells.
The subject of a further data set is Bacillus subtilis. Briefly: Antibacterial activity against Bacillus subtilis measured after 24 hrs. It is filed as functional.
The test system of a further data set is Staphylococcus aureus. The data set is described as follows: Antibacterial activity against Staphylococcus aureus measured after 24 hrs. It is filed as functional.
A further data set has as its system Pseudomonas fluorescens. The data set is described as follows: Antibacterial activity against Pseudomonas fluorescens measured after 24 hrs. It is filed as functional.
The nature of data set [2]: Cytotoxicity against HFF measured after 72 hrs by MTT assay. The conditions noted are these: human, HFF cells. Type of data set: cell-based.
The subject of another data set is Escherichia coli. Briefly: Antibacterial activity against Escherichia coli measured after 24 hrs. It is filed as functional.

The structures appear in SMILES notation. ≈ marks a conversion by molar mass, not a printed value.

`COc1cccc2c1CC[C@H]1[C@H]3COC(=O)[C@@]3(O)C(=O)C[C@]21C`: the CC50 at 72 h was 47.5 µg/mL (≈ 150 µM) in data set [1] and > 50 µg/mL in data set [2]. Also, the MIC against Bacillus subtilis is 0.8 µg/mL (≈ 2.53 µM); in the data set with Staphylococcus aureus, 1.6 µg/mL (≈ 5.06 µM); against Pseudomonas fluorescens, 1.6 µg/mL (≈ 5.06 µM); in the data set with Escherichia coli, 1.6 µg/mL (≈ 5.06 µM).
For `COc1cccc2c1CC[C@H]1[C@H]3COC(=O)C3=CC[C@]21C`, the CC50 at 72 h in data set [1] was determined as 9.9 µg/mL (≈ 34.8 µM); in data set [2], 25.2 µg/mL (≈ 88.6 µM). The MIC against Bacillus subtilis came to 6.3 µg/mL (≈ 22.2 µM); against Staphylococcus aureus, 6.3 µg/mL (≈ 22.2 µM); against Pseudomonas fluorescens, 6.3 µg/mL (≈ 22.2 µM); against Escherichia coli, 3.1 µg/mL (≈ 10.9 µM).
As to `COC(=O)[C@]1(C)CCC[C@]2(C)c3ccc(C(C)C)c(NC(=O)Cn4cc(-c5cccnc5)nn4)c3CC[C@@H]12`, the CC50 at 72 h in data set [1] amounted to 47.9 µg/mL (≈ 92.9 µM); in data set [2], 48.2 µg/mL (≈ 93.5 µM). For the same compound, the MIC worked out at 12.5 µg/mL (≈ 24.2 µM) in the data set with Bacillus subtilis, 3.1 µg/mL (≈ 6.01 µM) against Staphylococcus aureus, 6.3 µg/mL (≈ 12.2 µM) in the data set with Pseudomonas fluorescens and 3.1 µg/mL (≈ 6.01 µM) against Escherichia coli.
Take `COC(=O)[C@]1(C)CCC[C@]2(C)c3ccc(C(C)C)c(NC(=O)Cn4cc(-c5cccc(NC(C)=O)c5)nn4)c3CC[C@@H]12`: the CC50 at 72 h was 9.7 µg/mL (≈ 17 µM) in data set [1] and 12.2 µg/mL (≈ 21.3 µM) in data set [2]. The MIC in the data set with Bacillus subtilis was found to be 6.3 µg/mL (≈ 11 µM); against Staphylococcus aureus, 6.3 µg/mL (≈ 11 µM); with Pseudomonas fluorescens it was 6.3 µg/mL (≈ 11 µM); in the data set on Escherichia coli, 3.1 µg/mL (≈ 5.42 µM).
On to `COC(=O)[C@]1(C)CCC[C@]2(C)c3ccc(C(C)C)c(NC(=O)Cn4cc(-c5cncnc5)nn4)c3CC[C@@H]12`, for which the CC50 at 72 h came out at 31.7 µg/mL (≈ 61.4 µM) in data set [1] and 41.8 µg/mL (≈ 80.9 µM) in data set [2]. Also, the MIC amounted to 3.1 µg/mL (≈ 6 µM) with Bacillus subtilis, 1.6 µg/mL (≈ 3.1 µM) against Staphylococcus aureus, 1.6 µg/mL (≈ 3.1 µM) in the data set on Pseudomonas fluorescens and 1.6 µg/mL (≈ 3.1 µM) against Escherichia coli.
As for `CCOCOC[C@]12CCC(=C(SC)SC)C(=O)[C@@H]1CCc1c2ccc(C(C)C)c1OC`, the CC50 at 72 h is 13.2 µg/mL (≈ 28.4 µM) in data set [1] and 11.4 µg/mL (≈ 24.5 µM) in data set [2]. The MIC in the data set on Bacillus subtilis turned out to be 0.8 µg/mL (≈ 1.72 µM); against Staphylococcus aureus it was 6.3 µg/mL (≈ 13.6 µM); in the data set with Pseudomonas fluorescens, 1.6 µg/mL (≈ 3.44 µM); in the data set with Escherichia coli, 6.3 µg/mL (≈ 13.6 µM).
For `COc1c(C(C)C)ccc2c1[C@H](O)C=C1C3=C(CCC12C)C(=O)OC3` (single isomer, unassigned), the CC50 at 72 h came to 10.3 µg/mL (≈ 30.3 µM) in data set [1] and 9.2 µg/mL (≈ 27 µM) in data set [2]. In addition, the MIC was determined as 6.3 µg/mL (≈ 18.5 µM) against Bacillus subtilis, 3.1 µg/mL (≈ 9.11 µM) in the data set with Staphylococcus aureus, 3.1 µg/mL (≈ 9.11 µM) against Pseudomonas fluorescens and 3.1 µg/mL (≈ 9.11 µM) with Escherichia coli.

The CC50 is the concentration that lowers cell viability or growth by half. Low readings indicate greater toxicity to the cells, high ones lower toxicity to the cells. Broadly, the MIC is the lowest concentration found to suppress growth.

Source of the values: ChEMBL document CHEMBL4177696, “Identification of a diverse synthetic abietane diterpenoid library and insight into the structure-activity relationships for antibacterial activity” (Bioorg Med Chem Lett, 2017).
